Reference: US20150004157A1, “OSTEOPONTIN ISOFORM A INHIBITORS AND METHODS OF USE” (NEW YORK UNIVERSITY, priority 2012, published 2015)
No end group written: not given here.

Experiments:
[1] = system: NSCLC cell surface; test: NSCLC cell surface binding / competitive binding assay with fluorescent (FAM) labeled peptide; format: cell-based; conditions: for displacement of fluorescent labeled exon 4 peptide from the NSCLC cell surface by competitor: recombinant protein as competitor, 30 minutes, FIGS. 6B, 6C; for binding of fluorescently labeled peptide to the surface of the NSCLC cell lines: 100 nM FAM labeled peptide, 1 hour, FIG. 6A
Experimental: More particularly, the peptide mimic sequence was selected that contained the PDAV region, along with a scrambled sham of the same length. Peptides were constructed and fluorescent (FAM) labeled by Think peptides (Proimmune, Sarasota, Fla.). NSCLC cell surface binding was assayed by seeding ten thousand NSCLC cells per well in a 96-well plate and allowing them to sit for overnight at 37° C. The cells were treated with 100 nM of FAM labeled Exon4 and FAM labeled scrambled peptide for 1 hour and then gently washed with 0.1% BSA in PBS for three times followed by treating with recombinant Osteopontin at 1 uM, 500 nM, 250 nM, 125 nM, 62.5 nM and 31.25 nM for 30 minutes. The cells are then washed thrice with 0.1% BSA in PBS and measured the fluorescence at […].

[2] = system: H358, A549 and H460 cell lines; test: Apoptosis assay; format: cell-based
[3] = system: EMT targets in H358, A549 and H460 cell lines; test: Relative expression of EMT targets by quantitative RT-PCR in peptide treated cells; format: cell-based
Text: Here, mRNA was extracted from peptide treated cells and the relative expression of EMT targets evaluated by quantitative RT-PCR.

[4] = system: H358, A549 and H460 cell lines; test: In vitro invasion assay; format: cell-based
Experimental: (§1) In vitro invasion, migration, proliferation and soft agar colony formation assays were performed using the H358, A549 and H460 cell lines as previously described (Goparaju et al. “Functional Heterogeneity of Osteopontin Isoforms in Non-small Cell Lung Cancer,” J Thorac Oncol 5:1516-23 (2010), which is hereby incorporated by reference in its entirety) with 100 nM of exon 4 peptide or scrambled sham peptide in experimental medium. Experiments were performed in triplicates and comparisons of effect were made between peptide and sham within each cell line.

[5] = system: A549 cells; test: Cisplatin sensitivity assay (Cell Titer Blue survival); format: cell-based; conditions: 100 nM peptide, cisplatin concentrations of 0.1-0.8 μM/ml, 48 h, FIG. 7E
Experimental: The effect of exon 4 peptide on sensitivity to cisplatin was evaluated by plating 10,000 A549 cells/well in a 96-well plate in triplicates. Five hours later, the medium was changed to DMEM containing 100 nM of exon 4 peptide, 100 nM of scrambled sham peptide, or no peptide. Fifteen minutes later, the medium was changed to DMEM containing […] of cisplatin for 48 h at 37° C. The cells were then assayed for survival by adding […] of Cell Titer Blue reagent for 1 h. The fluorescence was read at 560/590λ.

[6] = system: H358; test: In vitro functional assays in H358 over-expressing full-length OPNa; format: cell-based; conditions: H358, addition of the exon 4 peptide
Experimental: as §1
The effects of mutated OPN and the exon 4 peptide in H358, a NSCLC cell line with low endogenous OPN expression, were insightful. This cell line has low malignant potential; however, malignant properties are increased by over-expression of full-length OPNa, but not by over-expression of OPNc or the PDAV-deleted mutant. Further, the tumorigenic effects of full-length OPNa over-expression are abolished by addition of the exon 4 peptide in this cell line.

[7] = system: H358, A549 and H460 cell lines; test: In vitro proliferation assay; format: cell-based
Experimental: as §1

[8] = target: membrane-associated protein complex on NSCLC cells (un-described cell surface receptor for OPN exon 4; H358, A549 and H460 cell surface); test: cell-based or functional assay
[9] = H358 cells with low endogenous OPN expression

rOPNa: recombinant full-length OPN (rOPNa, R&D, Minneapolis, Minn.)
displacement of fluorescent labeled exon 4 peptide from the NSCLC cell surface by competitor [1]: displaced by molar equivalents | displacement of fluorescent labeled exon 4 peptide from the NSCLC cell surface by competitor ([1]; listed as recombinant OPN): able to compete the peptide off the cell surface

KYPDAVATWLNPDPSQK (also: FAM label) [exon 4 peptide]
apoptosis [2, 9]: less impact | apoptosis ([2]; cells with high endogenous OPN expression (A549 and H460), peptide in media, FIG. 7C): increased | binding of fluorescently labeled peptide to the surface of the NSCLC cell lines [1]: specifically binds | relative expression of TFGb1-r ([3]; A549 and H460 cell lines, FIG. 9A): significant decrease | relative expression of N-cadherin ([3]; A549 and H460 cell lines, FIG. 9B): significant decrease | relative expression of desmoplakin ([3]; A549 and H460 cell lines, FIG. 9C): significant increase | relative expression of cytokeratin-20 ([3]; A549 and H460 cell lines, FIG. 9D): significant increase | relative expression of the same EMT markers (TFGb1-r, N-cadherin, desmoplakin, cytokeratin-20) ([3]; H358 cell line with low endogenous OPN): lesser impact | invasive capacity ([4]; FIG. 7D): decrease | invasion [4, 9]: less impact | invasion ([4]; cells with high endogenous OPN expression (A549 and H460), 100 nM peptide in media, FIGS. 7B and 7D): decreased | impact of exogenous rOPNa on invasion ([4]; exon 4 peptide added to exogenous rOPNa, FIG. 7D): blocks | decrease in cell viability compared to untreated or scrambled peptide (cisplatin sensitivity) [5]: 2 fold | tumorigenic effects of full-length OPNa over-expression [6]: abolished | proliferation [7, 9]: less impact | proliferation ([7]; cells with high endogenous OPN expression (A549 and H460), 100 nM peptide in media, FIG. 7A): decreased

WQKPAPLDTDPKVYANS (Scrambled Sham Peptide) [scrambled sham control of the same length as the peptide mimic, reference compound]
binding of fluorescently labeled peptide to the surface of the NSCLC cell lines [1]: does not

KYPDAVATWLNPDPSQK (also: FAM label, position not given here)
fold decrease in cell viability under cisplatin (cisplatin sensitivity, A549) [8]: 2 fold
